In paper PMC11436701 (Scientific Reports, 2024):

Molecular target: AChE (Electrophorus electricus, 220 U·mg^-1) (Electrophorus electricus, UniProt O42275)
Test: modified Ellman assay, […] nm
Assay type: biochemical

Sequence of AChE (Electrophorus electricus, 220 U·mg^-1) (O42275 24-633): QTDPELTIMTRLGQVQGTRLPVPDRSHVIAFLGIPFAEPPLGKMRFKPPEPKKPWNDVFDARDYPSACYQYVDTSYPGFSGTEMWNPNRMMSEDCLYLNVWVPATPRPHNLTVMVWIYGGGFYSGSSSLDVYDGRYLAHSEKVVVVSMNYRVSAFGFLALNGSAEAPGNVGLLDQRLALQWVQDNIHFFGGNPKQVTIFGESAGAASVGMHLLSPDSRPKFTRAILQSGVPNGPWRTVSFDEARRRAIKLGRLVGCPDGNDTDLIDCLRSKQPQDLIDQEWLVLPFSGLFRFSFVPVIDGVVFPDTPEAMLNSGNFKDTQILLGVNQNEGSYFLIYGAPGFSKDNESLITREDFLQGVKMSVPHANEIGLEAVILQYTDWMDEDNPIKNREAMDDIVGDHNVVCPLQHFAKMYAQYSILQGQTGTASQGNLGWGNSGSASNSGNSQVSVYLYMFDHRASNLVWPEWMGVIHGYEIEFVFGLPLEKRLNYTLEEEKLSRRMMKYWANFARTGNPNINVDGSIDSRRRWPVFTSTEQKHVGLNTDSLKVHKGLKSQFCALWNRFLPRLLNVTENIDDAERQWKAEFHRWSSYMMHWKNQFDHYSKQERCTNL

SMILES: CCOP(=S)(OCC)Oc1nc(Cl)c(Cl)cc1Cl [CPF, chlorpyrifos]
- IC50: 73 µM

SMILES: COP(=O)(OC)OC=C(Cl)Cl [DDVP, dichlorvos]
- IC50: 1.25 µM
